According to patent publication US6261814A, “Carboxylic acid reductase, and methods of using same” (University of Iowa Research Foundation, priority 1998, dated 2001):
Entries after “also recorded” stand apart in the source; their conditions may differ.

Key:
Nocardia sp. NRRL 5646 = assay: Induction of the enzyme by benzoate in stage two cultures; format: cell-based; conditions: NRRL5646, 24 h, read-out: induction of specific activity of aryl aldehyde oxidoreductase in crude extracts
Experimental: Shaken flask cultures were grown by a standard two stage incubation protocol (Betts et al., J. Med. Chem. 17:599-602 (1974)) in 200 ml of sterile medium held in stainless steel-capped 1-liter DeLong culture flasks. The medium, containing (wt/vol) 2% glucose, 0.5% yeast extract, 0.5% soybean flour, 0.5% NaCl, and 0.5% K2 HPO4 in distilled water, was adjusted to pH 7.2 with 6 N HCl, and then autoclaved at 121° C. for 20 min. Cultures were incubated by shaking at 250 rpm at 28° C. on New Brunswick Scientific, C25 Gyrotory shakers. A 10% inoculum derived from a 72-hour first-stage culture was used to initiate the second-stage culture, which was incubated as before. […] The culture was harvested 24 hours after the addition of benzoate, the cells were collected from the medium by centrifugation at 8,000×g for 20 min., and washed twice with 0.9% NaCl. Cell pellets were stored at -38° C. until needed. Typical wet cell yields by this cultivation process were approximately 25 g/liter.
As a result, it was determined that the specific activity of aryl aldehyde oxidoreductase in crude extracts of Nocardia sp. NRRL 5646 could be induced up to 10 fold by the addition of up to 5 mg/ml benzoate to the 24 hour, stage two cultures.

[1] = molecular target: T1, carboxylic acid reductase (aryl aldehyde oxidoreductase) (Nocardia iowensis, UniProt Q6RKB1); assay: Kinetic properties of the purified carboxylic acid reductase (standard enzyme assay); conditions: for Vmax: purified enzyme, mean of three determinations
Experimental: (§1) Enzyme assay. The standard aryl-aldehyde oxidoreductase assay solution contained 0.15 mM […], 1 mM ATP, and 5 mM sodium benzoate, 10 mM MgCl2 and 0.01 to 0.3 units of enzyme in 50 mM Tris-HCl buffer in a final volume of 0.7 ml. The reference cuvette contained all components except for benzoate. Enzyme reactions were initiated by adding enzyme, and they were monitored by recording the absorption decrease at 340 nm at 25° C. with a Shimadzu 160 spectrophotometer.
Kinetic constants were obtained by fitting experimental data with the EZ-FIT program developed by Perrella (Perrella, Anal. Biochem. 174:437-447 (1987)).
S(+)-α-Methyl-4-[2-methylpropyl]-benzeneacetic acid (ibuprofen) was from Aldrich Chemical Co. R(-) isomer of ibuprofen was a gift from Dr. Ching-Shih Chen, University of Rhode Island (Chen et al., Biochim. Biophys. Acta 1033:1-6 (1990)). […] Substrate enantiopurities were checked by specific rotation determination for each isomer (Chen and Rosazza, Appl. Environ. Microbiol. 60(4):1292-1296 (1994)).

[2] = molecular target: T2, oxidoreductase from Neurospora crassa (Neurospora crassa, UniProt Q7RW48); conditions: Eur. J. Biochem. 8:413 (1969); cited from earlier work
T2 construct: host or cells: crude Neurospora crassa preparation (Eur. J. Biochem. 8:413 (1969))
T2 sequence (Q7RW48 1-1052): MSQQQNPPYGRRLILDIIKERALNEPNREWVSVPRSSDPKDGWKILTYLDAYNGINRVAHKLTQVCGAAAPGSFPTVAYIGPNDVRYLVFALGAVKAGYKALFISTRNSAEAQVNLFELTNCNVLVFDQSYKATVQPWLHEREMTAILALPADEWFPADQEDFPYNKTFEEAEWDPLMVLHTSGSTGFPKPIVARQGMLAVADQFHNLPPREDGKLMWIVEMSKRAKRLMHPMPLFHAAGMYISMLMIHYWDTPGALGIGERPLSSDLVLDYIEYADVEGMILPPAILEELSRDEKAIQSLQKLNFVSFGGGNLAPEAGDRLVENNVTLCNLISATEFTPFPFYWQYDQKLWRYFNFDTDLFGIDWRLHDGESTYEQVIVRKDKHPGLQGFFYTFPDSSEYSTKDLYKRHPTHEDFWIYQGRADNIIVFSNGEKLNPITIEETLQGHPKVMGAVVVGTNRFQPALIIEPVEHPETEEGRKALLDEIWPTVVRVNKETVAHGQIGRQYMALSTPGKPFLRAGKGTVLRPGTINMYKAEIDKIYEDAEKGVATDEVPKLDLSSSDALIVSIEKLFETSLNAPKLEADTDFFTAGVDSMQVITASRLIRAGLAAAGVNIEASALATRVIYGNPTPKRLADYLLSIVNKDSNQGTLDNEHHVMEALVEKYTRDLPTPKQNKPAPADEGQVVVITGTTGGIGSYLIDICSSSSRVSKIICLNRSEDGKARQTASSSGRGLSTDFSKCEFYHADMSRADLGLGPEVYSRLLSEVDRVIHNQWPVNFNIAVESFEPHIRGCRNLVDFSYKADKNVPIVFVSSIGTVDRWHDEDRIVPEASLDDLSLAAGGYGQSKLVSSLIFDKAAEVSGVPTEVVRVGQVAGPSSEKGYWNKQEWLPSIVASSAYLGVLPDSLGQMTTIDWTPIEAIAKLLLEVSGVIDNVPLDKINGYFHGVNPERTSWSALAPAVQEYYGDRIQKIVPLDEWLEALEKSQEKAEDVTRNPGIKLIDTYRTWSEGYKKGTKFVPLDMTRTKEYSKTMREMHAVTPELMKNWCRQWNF

[3] = molecular target: T1, carboxylic acid reductase (aryl aldehyde oxidoreductase); assay: Substrate specificity of crude carboxylic acid reductase (100,000×g supernatant); format: biochemical, Nocardia sp. NRRL 5646; design: Crude enzyme preparations consisting of 100,000×g supernatants were used in this study; endogenous in cells; host or cells: Nocardia sp; NRRL 5646, crude 100,000×g supernatant
Experimental: as §1
Crude enzyme preparations consisting of 100,000×g supernatants were used in this study. […] The relative rate of reduction for each carboxylic acid derivative is expressed as the percentage of the initial rate of benzoate reduction.
The range of oxidoreductase activities of crude, 100,000×g Nocardia extract with a variety of substrates was investigated. Various substituted 2-, 3- and 4-substituted benzoates were examined, including a range of ring-activating and ring-deactivating functional groups. Benzoates substituted with halogens, methyl, methoxy, hydroxy, acetyl, nitro, benzoyl, phenyl, and phenoxyl groups as well as aryl-ring systems containing two (naphthalene) and three (fluorene) rings, and heterocyclic aromatic acids including furoic, nicotinic and indole carboxylic acids were considered. In addition, one cinnamic acid derivative, phenyl-acetate, phenyl-malonate, phenyl-succinate and 2-phenylpropionic acid were studied.

[4] = molecular target: T3, carboxylic acid reductase (Nocardia iowensis, UniProt Q6RKB1); assay: 13C NMR study of benzoyl-AMP reduction by purified carboxylic acid reductase; format: biochemical, Nocardia sp. NRRL 5646; conditions: 1.4 mM benzoyl-AMP, 2.0 mM NADPH, 20 min. at 20° C.
T3 construct: isolated and substantially purified from Nocardia sp. strain NRRL 5646; endogenous in cells; host or cells: Nocardia sp; NRRL 5646, benzoate-induced culture; enzyme purified by Mono-Q, Reactive Green 19 agarose and hydroxyapatite chromatography
Experimental: Using carboxyl-^13 C labeled benzoyl-AMP, synthesized as described in Example 1, the reduction of benzoyl-AMP to benzaldehyde with the substantially purified carboxylic acid reductase from Nocardia sp. NRRL 5646 was investigated with ^13 C NMR spectroscopy (see, FIG. 1). The substantially purified carboxylic acid reductase from Nocardia sp. NRRL 5646 and all other reagents were prepared or obtained in Example 1.
A 10 μl sample (0.05 units) of the substantially purified carboxylic acid reductase was added to initiate the reaction. A control sample was prepared containing everything except the enzyme. After 20 min. incubation at 20° C., the samples were subjected to NMR analysis. For ^13 C NMR spectroscopy, […] D2 O was added as the locking solvent, and […] of dioxane was added as an internal standard (67.4 ppm). NMR spectra were obtained with a Bruker WM 360-MHZ high-field spectrometer equipped with an IBM Aspect-2000 processor.

[5] = molecular target: T3, carboxylic acid reductase; assay: Enzymatic reduction of vanillic acid to vanillin by purified carboxylic acid reductase; format: biochemical, Nocardia sp. NRRL 5646; conditions: with ATP and NADPH, purified enzyme
Experimental: The reaction mixture was incubated at 30° C. with gentle shaking for 24 hours, after which the entire reaction mixture was loaded onto a solid phase extraction cartridge (Chem Elut 1200, 200 ml aqueous solution capacity). After 5 min. of equilibration, the cartridge was washed with 2×100 ml of hexane, then washed again with 2×100 ml of dichloromethane (concentrated to less than 2 ml).
The extract was then transferred to a vial and the solvent was removed with a stream of nitrogen to give about 8 mg of the purified vanillin end product.
Mass spectrometry, ^1 H, and ^13 C NMR data confirmed that this compound was vanillin. The yield was determined to be 96% with UV spectrophotometric assay at 340 nm.

[6] = molecular target: T3, carboxylic acid reductase; assay: Rate of carboxylic acid reduction after o-benzylation of vanillic acid (unpublished data); format: biochemical, Nocardia sp. NRRL 5646; conditions: substrate concentration 5 mM

T1 sequence (Q6RKB1 whole entry): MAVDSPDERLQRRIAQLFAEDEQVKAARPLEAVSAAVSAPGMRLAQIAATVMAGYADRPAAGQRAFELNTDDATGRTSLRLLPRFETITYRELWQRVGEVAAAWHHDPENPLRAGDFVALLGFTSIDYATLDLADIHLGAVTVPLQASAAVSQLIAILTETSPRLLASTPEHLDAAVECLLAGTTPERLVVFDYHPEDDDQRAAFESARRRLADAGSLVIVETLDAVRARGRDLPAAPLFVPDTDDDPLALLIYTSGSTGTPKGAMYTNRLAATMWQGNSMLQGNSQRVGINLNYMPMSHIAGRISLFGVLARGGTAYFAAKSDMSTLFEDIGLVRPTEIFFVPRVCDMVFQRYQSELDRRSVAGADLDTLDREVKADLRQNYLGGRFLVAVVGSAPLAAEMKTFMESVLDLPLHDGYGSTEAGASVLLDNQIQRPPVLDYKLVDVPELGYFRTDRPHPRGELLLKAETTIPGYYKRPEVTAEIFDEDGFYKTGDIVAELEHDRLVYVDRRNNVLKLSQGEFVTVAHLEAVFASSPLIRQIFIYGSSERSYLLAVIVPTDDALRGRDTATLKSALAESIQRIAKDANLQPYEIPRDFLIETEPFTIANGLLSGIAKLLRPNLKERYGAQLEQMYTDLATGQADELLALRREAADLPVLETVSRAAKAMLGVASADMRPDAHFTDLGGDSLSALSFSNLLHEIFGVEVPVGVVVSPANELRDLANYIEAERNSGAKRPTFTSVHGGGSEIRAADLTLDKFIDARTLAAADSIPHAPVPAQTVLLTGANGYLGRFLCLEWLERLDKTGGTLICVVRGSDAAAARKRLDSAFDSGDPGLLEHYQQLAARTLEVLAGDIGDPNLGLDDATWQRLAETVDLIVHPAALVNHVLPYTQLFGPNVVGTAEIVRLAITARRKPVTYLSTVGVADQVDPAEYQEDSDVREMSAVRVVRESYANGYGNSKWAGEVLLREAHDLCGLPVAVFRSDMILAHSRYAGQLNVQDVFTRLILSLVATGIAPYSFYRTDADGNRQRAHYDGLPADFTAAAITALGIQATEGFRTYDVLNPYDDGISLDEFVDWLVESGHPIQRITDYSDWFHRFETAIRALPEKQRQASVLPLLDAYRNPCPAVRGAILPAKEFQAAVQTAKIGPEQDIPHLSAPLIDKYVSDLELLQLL
T3 sequence (Q6RKB1 whole entry): as above

Q: With O=C(O)c1ccccc1 [benzoic acid] as the molecule, how does the fold induction at 5000 µg/mL (Nocardia sp. NRRL 5646) read?
A: The fold induction at 5000 µg/mL was no more than 10.

Q: What about the “inhibition of the enzyme by benzoate” value ([1]; benzoate concentration up to 2 mM) of the same molecule?
A: The value was “no inhibition was observed”.

Q: And the “apparent Km relative to Km reported for the enzyme from Nocardia asteroides” value ([1]; higher than values reported by Kato et al.)?
A: The value was “more than 1000 fold”.

Q: What about the turnover number ([1]; pseudo-first order reaction conditions) of the same molecule?
A: The turnover number was 126 min⁻¹.

Q: And the Vmax [1]?
A: The Vmax was 0.902 ± 0.04 μmol/min/mg of protein.

Q: And the Vmax ([1]; listed as benzoate)?
A: The Vmax was 0.902±0.04 μmol/min/mg of protein.

Q: What about the Km [2] of the same molecule?
A: Its Km is 63 µM.

Q: What about the “benzoate concentration at which activity is inhibited” value [2] of the same molecule?
A: The value was 300 µM.

Q: And the “Relative Activity” value ([3]; 5 mM substrate, 0.15 mM NADPH, 1 mM ATP, 50 mM Tris-HCl pH 7.5, percentage of the initial rate of benzoate reduction)?
A: Its value is 100 percentage.

Q: What about the “quality as substrate of the enzyme (in words)” value ([3]; substrates of Table 2) of the same molecule?
A: The value was “best substrates”.

Q: And the “rate of benzoate reduction” value ([3]; typical, crude enzyme, 5 mM)?
A: Its value is 0.066 ΔA340 /min.

Q: And the “rate of benzoate reduction (equivalent)” value ([3]; typical, crude enzyme, 5 mM)?
A: The value was 10.6 µM/min.

Q: With Nc1ncnc2c1ncn2[C@@H]1O[C@H](COP(=O)(O)OC(=O)c2ccccc2)[C@@H](O)[C@H]1O [benzoyl AMP] as the molecule, how does the “reduction of benzoyl-AMP to benzaldehyde” value [4] read?
A: The value was “completely reduced; also recorded: quantitatively reduced”.

Q: Which results are given for COc1cc(C(=O)O)ccc1O [vanillic acid, 4-hydroxy-3-methoxybenzoic acid]?
A: transformation from vanillic acid to vanillin [5]: quantitative; increase in the rate of carboxylic acid reduction as a result of o-benzylation [6]: more than 15 fold
